Series [1] concerns Normal Conscious Rat. Kind of series: Aquaretic Effects in Normal Conscious Rat (urine volume). The series is classed as in vivo, rat (Sprague-Dawley, male). As for the experimental part:
Aquaretic Effects in Normal Conscious Rat
Studies were performed with Sprague-Dawley male SPF rats (body weight: 240 to 320 g; 8-week-old). In this experiment, each group consisted of not less than 4 animals and rats were fasted over 16 to 20 hours. The animals were acclimatized in metabolic cages for one hour, then each compound to be tested was dissolved in 100% N,N-dimethylformamide or suspended in 5% gum arabic solution and administered to these animals intravenously (iv.) in a dose of 3 mg/kg or orally (p.o.) in a dose of 30 mg/kg. Immediately after the test compound or vehicle were orally administered, saline (25 ml/kg) was given orally. Spontaneous voided urines were collected for 4 hours after the administration of the compound and the amount of the urine were determined. In this case, the control group consisted of animals to which only 5% gum arabic was orally administered.
In addition, known compounds of Comparative Examples 2 and Comparative Examples 3 and 4 represented by the following formulas were used as control compounds.

Series [2] deals with Vasopressin V2 Receptor (Rattus norvegicus, UniProt Q00788). The series is described as follows: biochemical. It counts as binding, rat (Sprague-Dawley, female; kidney crude membrane). To be noted: 1 h; 10^-7 M; inhibition rate at this concentration; read-out: Binding Rate of Vasopressin V2 Receptor.
Series [3] has as its target Vasopressin V1 Receptor (Rattus norvegicus, UniProt P30560). Kind of series: biochemical. Particulars: 1 h; 10^-7 M; inhibition rate at this concentration; read-out: Binding Rate of Vasopressin V1 Receptor. It counts as binding, rat (Sprague-Dawley, female; liver crude membrane).
Protocol: The livers excised from Sprague-Dawley female rats were cut into small pieces, and were homogenized in 50 mM Tris-HCl, pH 7.4 hereunder referred to as "buffer"). The homogenate was centrifuged at 50000×g, at 4° C. for 20 minutes. The pellet was added the buffer in an amount of 10 times the volume of the pellet, the mixture was recentrifuged by the same method as described above to wash the residue. The buffer was further added to the resulting pellet so that the protein content thereof was adjusted to 10 mg/ml to thus give a crude membrane fraction of rat liver. The crude membrane fraction of rat liver was used in the following test. More specifically, 5000 μg of the crude liver membrane was incubated with [^3 H]-Arg-vasopressin V-1 antagonist ([^3 H) vasopressin V1 antagonist: 2 nM) and various concentration (3×10^-12 to 10^-6) of the test compounds in a 1000 μL of buffer containing 10 mM magnesium chloride, 10 mM potassium chloride and 0.1% bovine serum albumin at 25° C. for 60 minutes. Thereafter the incubation mixture was rapidly filtered by vacuum using a cell harvester. The filters were washed with buffer to remove free ligands and excess buffer, and to thus trap labeled ligand linked with the receptor on the filter paper. The filter paper was sufficiently dried and mixed with a liquid scintillator, and the amount of the [^3 H] vasopressin V1 antagonist bonded to the membrane was determined using a liquid scintillation counter. The inhibition rate at each concentration was calculated according to the following equation:
Inhibition Rate (%)=100-[(B-N)/(B0 -N)]×100
Wherein B represents the amount of the [^3 H] vasopressin V1 antagonist bonded to the membrane in the presence of known amounts of the compound to be tested and the [^3 CH] vasopressin V1 antagonist;
B0 represents the amount of the [^3 H] vasopressin V1 antagonist bonded to the membrane in the absence of the compound to be tested;
N represents the amount of the [^3 H] vasopressin V1 antagonist bonded to the membrane in the presence of an excess of vasopressin (10^-6 M).
The IC50 value (the concentration required to cause 50% inhibition of the specific binding of [^3 H]-V1 antagonist) was determined. […] On the other hand, for the compounds which were investigated only one concentration (10^-7 M), the inhibition rate at that concentration was defined to be the binding rate.
Series [4] has as its system male ICR mice. The series is described as follows: Acute Toxicity Test. It counts as in vivo. Particulars: oral, 7 days observation. The method, then:
To groups of male ICR mice (6-week-old) each consisting of 5 animals, there were orally administered the compounds of Examples 13, 18, 25 and 30 and Comparative Examples 2 and 5 suspended in 5% gum arabic solution at doses of 150, 500 and 1500 mg/kg, followed by observation of the general symptoms of these animals during 7 days after the administration to thus evaluate the number of death. In this respect, mice were given feed and water ad libitum throughout this test except for the term extending from 16 to 20 hours before the administration and 4 hours after the administration.

The results in this text go back to patent US6225306A, “Biphenyl derivatives and drug composition” (Wakamoto Pharmaceutical Co., Ltd., priority 1997, dated 2001).

The structures appear in SMILES notation. “And” between values parts separate entries of the source, which are not always exact repeats. Equal entries are not always repeated. Structures can show the parent of a compound that is named as a salt.

Sequence of Vasopressin V1 Receptor (P30560 whole entry): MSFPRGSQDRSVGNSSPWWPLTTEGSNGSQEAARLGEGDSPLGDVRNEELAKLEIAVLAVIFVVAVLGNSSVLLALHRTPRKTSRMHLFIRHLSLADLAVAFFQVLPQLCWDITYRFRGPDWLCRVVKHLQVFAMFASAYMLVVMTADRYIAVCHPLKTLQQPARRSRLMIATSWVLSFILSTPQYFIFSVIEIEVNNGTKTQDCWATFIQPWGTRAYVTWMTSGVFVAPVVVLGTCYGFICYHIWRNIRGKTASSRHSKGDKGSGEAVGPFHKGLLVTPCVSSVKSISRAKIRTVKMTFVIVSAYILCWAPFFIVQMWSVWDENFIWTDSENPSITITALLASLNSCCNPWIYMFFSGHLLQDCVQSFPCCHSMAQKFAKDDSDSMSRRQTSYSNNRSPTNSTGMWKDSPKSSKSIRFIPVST
Sequence of Vasopressin V2 Receptor (Q00788 whole entry): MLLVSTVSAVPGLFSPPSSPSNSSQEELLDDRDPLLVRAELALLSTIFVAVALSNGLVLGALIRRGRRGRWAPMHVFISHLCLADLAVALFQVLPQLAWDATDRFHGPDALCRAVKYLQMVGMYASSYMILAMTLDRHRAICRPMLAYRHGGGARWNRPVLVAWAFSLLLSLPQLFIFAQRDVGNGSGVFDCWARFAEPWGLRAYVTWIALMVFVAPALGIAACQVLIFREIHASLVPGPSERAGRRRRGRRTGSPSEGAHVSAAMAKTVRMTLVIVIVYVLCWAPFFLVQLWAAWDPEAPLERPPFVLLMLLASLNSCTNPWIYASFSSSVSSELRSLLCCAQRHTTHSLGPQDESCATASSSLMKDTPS

Regarding `O=C(Nc1ccc(C(=O)N2CC[C@H]3C[C@H](O)CN3c3ccccc32)cc1)c1ccccc1-c1ccccc1` [Example 54, (2S, 3aS)-2-Hydroxy-6-[4-[(2-Phenylbenzoyl) Amino]Benzoyl]-2,3,3a,4,5,6-Hexahydro-1H-Pyrrolo[1,2-a][1,5]Benzodiazepine], the “Amount of Urine Volume” value came to 78.3 ml/kg/0-4 hr in series [1] (3 mg/kg, i.v.) and 68.0 ml/kg/0-4 hr in series [1] (30 mg/kg, p.o.). Further, the inhibition at 0.1 µM in series [2] came out at 95.1%; in series [3], 98.6%.
With `Cc1ccc(-c2ccccc2C(=O)Nc2ccc(C(=O)N3C[C@H]4C[C@H](N(C)C)CN4c4ccccc43)cc2)cc1` [Example 22, (2S, 3aR)-2-(N,N-Dimethylamino)-5-[4-[[2-(4-Tolyl) Benzoy]Amino]Benzoyl]-1,2,3,3a,4,5-Hexahydro-Pyrrolo[1,2-a]Quinoxaline Hydrochloride], the “Amount of Urine Volume” value in series [1] (3 mg/kg, i.v.) was 58.8 ml/kg/0-4 hr; in series [1] (30 mg/kg, p.o.), 79.6 ml/kg/0-4 hr. Moreover, the inhibition at 0.1 µM in series [2] worked out at 100%; in series [3], 33.5%.
Regarding `Cc1nc2c([nH]1)-c1ccccc1N(C(=O)c1ccc(NC(=O)c3ccccc3-c3ccccc3)cc1)CC2` [Comparative Example 5, reference compound], the “number of death out of 5 or 6 animals” value in series [4] (150 mg/kg) was 0/5; in series [4] (500 mg/kg), 2 out of 5 and 2/5; in series [4] (1500 mg/kg), 2 out of 5 and 2/5.
As to `O=C(Nc1ccc(C(=O)N2C[C@H]3C[C@H](O)CN3c3ccccc32)cc1)c1ccccc1-c1ccccc1` [Example 17, (2S, 3aR)-2-Hydroxy-5-[4-[(2-Phenylbenzoyl) Amino]Benzoyl]-1,2,3,3a,4,5-Hexahydro-Pyrrolo[1,2-a]Quinoxaline], the “Amount of Urine Volume” value in series [1] (3 mg/kg, i.v.) is on record as 58.6 ml/kg/0-4 hr; in series [1] (30 mg/kg, p.o.), 26.3 ml/kg/0-4 hr. Moreover, the inhibition at 0.1 µM amounted to 100% in series [2] and 52.4% in series [3].
For `Cc1ccc(-c2ccccc2C(=O)Nc2ccc(C(=O)N3C[C@@H]4CCCN4C(=S)c4ccccc43)cc2)cc1` [Example 38, (11aS)-10-[4-[[2-(4-Tolyl) Benzoyl]Amino]Benzoyl]-1,2,3,10,11, 11a-Hexahydro-5H-Pyrrolo[2,1-c][1,4]Benzodiazepin-5-Thione] the same measures were 60.0 ml/kg/0-4 hr, 66.6 ml/kg/0-4 hr, 100% and 4.7%.
Taken in the same sequence, the figures for `O=C(Nc1ccc(C(=O)N2C[C@H]3CCCN3c3ccccc32)cc1)c1ccccc1-c1ccccc1` [Example 11, (3aR)-5-[4-[(2-Phenylbenzoyl) Amino]Benzoyl]-1,2,3,3a,4,5-Hexahydro-Pyrrolo[1,2-a]Quinoxaline] were 56.5 ml/kg/0-4 hr, 69.6 ml/kg/0-4 hr, 100% and 34%.
For `O=C(Nc1ccc(C(=O)N2C[C@@H]3CCCN3C(=S)c3ccccc32)cc1)c1ccccc1-c1ccccc1` [Example 37, (11aS)-10-[4-[(2-Phenylbenzoyl) Amino]Benzoyl]-1,2,3,10,11, 11a-Hexahydro-5H-Pyrrolo[2,1-c][1,4]Benzodiazepin-5-Thione] the same measures were 40.7 ml/kg/0-4 hr, 21.1 ml/kg/0-4 hr, 100% and 2.8%.
On to `O=C1C[C@H]2CN(C(=O)c3ccc(NC(=O)c4ccccc4-c4ccccc4)cc3)c3ccccc3C(=O)N2C1` [Example 30, (11aS)-10-[4-[(2-Phenylbenzoyl) Amino]Benzoyl]-1,2,3,10,11, 11a-Hexahydro-5H-Pyrrolo [2,1-c][1,4]Benzodiazepin-2,5-Dione], for which the “Amount of Urine Volume” value in series [1] (3 mg/kg, i.v.) is on record as 57.1 ml/kg/0-4 hr; in series [1] (30 mg/kg, p.o.), 103.0 ml/kg/0-4 hr. The “number of death out of 5 or 6 animals” value in series [4] (150 mg/kg), in series [4] (500 mg/kg) and in series [4] (1500 mg/kg) was 0/6 each time.
`Cc1ccc(-c2ccccc2C(=O)Nc2ccc(C(=O)N3C[C@H]4CC(=O)CN4c4ccccc43)cc2)cc1` [Example 24]: the “Amount of Urine Volume” value was 49.4 ml/kg/0-4 hr in series [1] (3 mg/kg, i.v.) and 46.1 ml/kg/0-4 hr in series [1] (30 mg/kg, p.o.). For the same molecule, the inhibition at 0.1 µM in series [2] was found to be 100%; in series [3], 16.5%.
Taken in the same sequence, the figures for `Cc1ccc(-c2ccccc2C(=O)Nc2ccc(C(=O)N3C[C@@H]4CCCN4C(=O)c4ccccc43)cc2)cc1` [Example 26, (11aS)-10-[4-[[2-(4-Tolyl) Benzoyl]Amino]Benzoyl]-1,2,3,10,11,11a-Hexahydro-5H-Pyrrolo[2,1-c][1,4]Benzodiazepin-5-One] were 72.3 ml/kg/0-4 hr, 88.3 ml/kg/0-4 hr, 100% and 4%.
Taken in the same sequence, the figures for `CC(=O)O[C@H]1C[C@@H]2CN(C(=O)c3ccc(NC(=O)c4ccccc4-c4ccc(C)cc4)cc3)c3ccccc3N2C1` [Example 16, (2S, 3aR)-2-Acetoxy-5-[4-[[2-(4-Tolyl) Benzoyl]Amino]Benzoyl]-1,2,3,3a,4,5-Hexahydro-Pyrrolo[1,2-a]Quinoxaline] were 71.0 ml/kg/0-4 hr, 72.0 ml/kg/0-4 hr, 100% and 68.2%.
Turning to `Cc1ccc(-c2ccccc2C(=O)Nc2ccc(C(=O)N3C[C@H]4CCCN4Cc4ccccc43)cc2)cc1` [Example 44, (11aR)-10-[4-[[2-(4-Tolyl) Benzoyl]Amino]Benzoyl]-1,2,3,10,11, 11-Hexahydro-5H-Pyrrolo[2,1-c][1,4]Benzodiazepine Hydrochloride], the “Amount of Urine Volume” value in series [1] (3 mg/kg, i.v.) came out at 73.0 ml/kg/0-4 hr; in series [1] (30 mg/kg, p.o.) it was 92.8 ml/kg/0-4 hr. Moreover, the results for the inhibition at 0.1 µM in series [2] and in series [3] were 96.7% and 48.2%, respectively.
Regarding `O=C(Nc1ccc(C(=O)N2C[C@@H]3C[C@H](O)CN3C(=O)c3ccccc32)cc1)c1ccccc1-c1ccccc1` [Example 29, (2S, 11aS)-2-Hydroxy-10-[4-[(2-Phenylbenzoyl) Amino]Benzoyl]-1,2,3,10,11,11a-Hexahydro-5H-Pyrrolo[2,1-c][1,4]Benzodiazepin-5-One], the “Amount of Urine Volume” value was found to be 50.4 ml/kg/0-4 hr in series [1] (3 mg/kg, i.v.) and 14.0 ml/kg/0-4 hr in series [1] (30 mg/kg, p.o.). The inhibition at 0.1 µM was 99.5% in series [2] and 18.9% in series [3].
For `O=C(Nc1ccc(C(=O)N2C[C@@H]3CCCN3Cc3ccccc32)cc1)c1ccccc1-c1ccccc1` [Example 41, (11aS)-10-[4-[(2-Phenylbenzoyl) Amino]Benzoyl]-1,2,3,10,11, 11a-Hexahydro-5H-Pyrrolo[12,1-c][1,4]Benzodiazepine Hydrochloride] the same measures were 29.6 ml/kg/0-4 hr, 73.8 ml/kg/0-4 hr, 92% and 6.6%.
